# Patent US11065335B2, “Methods of treating leukemia using compositions containing bis(benzylthio)octanoic acid and ion pairs thereof” (Rafael Pharmaceuticals, Inc., priority 2007, dated 2021)
# Counter-ions that a name gives are not always drawn.
# Assays:
# [1] = system: A2780 ovarian tumor cells and BXPC3 human pancreatic cancer cells; test: CellTiter Glo cell viability assay, text statements not split by cell line; assay type: cell-based; conditions: vehicle alone 3200 μM
# Procedure: Two types of human tumor cells were used in this investigation: BXPC3 human pancreatic cancer cells and A2780 human ovarian cancer cells. The BXPC3 cells were originally obtained from American Type Cell Culture (ATCC). […] The tumor cells were split at a ratio of 1:5 every 4-5 days by trypsinization and resuspended in fresh medium in a new flask. Cells were harvested for experiments at 70-90% confluency.
# (§1) The corresponding vehicle concentrations were 64, 32, 16, 12, and 4 mM respectively. A sixty-four mM aliquot of vehicle was dissolved in 10 mL of water. […] A 5 μL aliquot of this stock solution was added to 95 μL of tumor cells in media. Upon dilution in the wells, the corresponding drug concentrations were 400, 200, 100, 75 and 25 μM respectively.
# This gave a 16 mM solution.
# This stock was further diluted serially in complete media to give 8 mM, 4 mM 2 mM, 1.5 mM and 0.5 mM working solutions.
# The tumor cells were treated for 24 hrs with the test article in serum-containing medium. After 24 hrs of treatment the number of viable tumor cells was determined.
# The number of cells targeted for the study was 4×10^3 per well in 100 μL of medium. The actual number of cells were counted and seeded in the wells of a 96 well-plate.
# For each cell line the concentrations of test articles or vehicles specified above was used. Five μL of the working solution for each test article or vehicle was added to 95 μL of cell culture media. The corresponding final concentrations of test articles are 20 fold more diluted than the working solutions. […] Additionally, a set of wells was treated with cell culture medium in the absence of cells to obtain a value for background luminescence.
# The number of viable cells was determined by using the CellTiter Glo® Assay. Specifically, reagents were mixed and allowed to come to room temperature according to instructions from Promega, Inc. (Madison, Wis.). Cell plates were removed from the cell culture incubator and left on the bench for 30 minutes until they reach room temperature. A one-hundred μL aliquot CellTiter Glo® reagent was added to each well with a 12-channel Eppendorf pipettor. The cells were lysed by shaking the plate for 2 minutes in a shaker. Then, the cells were kept at room temperature for 10 minutes to stabilize the luminescent signal. The luminescence was measured using the FLUOstar OPTIMA plate reader (BMG Labtech, Inc., Durham, N.C.).
# Data from luminescence readings was copied onto EXCEL spreadsheets, and cell growth relative to untreated cells was calculated, using the following equation: […]
# The calculated values were imported into SigmaPlot, v11. A Four-Parameter Logistic Curve of the “mean relative cell growth as a function of the concentrations of the test articles” was generated. The EC50 values were determined from the curves. The R-squared value provides an indication of the degree of fitness of data to the curve. For each experiment, the percentage of viable cells was be expressed as the mean of 9 replicates. The average was calculated by taking the mean±standard deviation of the three experiments.
# [2] = CellTiter Glo cell viability assay, A2780 cells; conditions: human, A2780 Cell Viability; for viability: 24 hrs
# Procedure: (§2) Two types of human tumor cells were used in this investigation: BXPC3 human pancreatic cancer cells and A2780 human ovarian cancer cells. The BXPC3 cells were originally obtained from American Type Cell Culture (ATCC). The ovarian tumor cells were gifts from Roswell Park Cancer Institute, Buffalo, N.Y. All tumor cells were maintained at 37° C. in a humidified 5% CO2 atmosphere in T75 tissue culture flasks containing 20 mL of Roswell Park Memorial Institute (RPMI) 1640 containing 2 mM L-glutamine, 10% fetal bovine serum (FBS) and 1% penicillin and streptomycin (100 IU/mL penicillin and 100 μg/mL streptomycin). The tumor cells were split at a ratio of 1:5 every 4-5 days by trypsinization and resuspended in fresh medium in a new flask. Cells were harvested for experiments at 70-90% confluency.
# as §1, with “CPI-613 (i.e., 6,8-bis(benzylthio)octanoic acid) stock solutions at concentrations of 8, 4, 2, 1.5 and 0.5 mM were prepared in the appropriate vehicles. The molar ratio of vehicle to CPI-613 was maintained at 8:1. The” for “The”, “water. Next, 8 mM of CPI-613 was added and the mixture was stirred until a clear solution was obtained.” for “water.”
# (§3) For the sodium salt and potassium salt form of CPI-613, 1 equivalent of CPI-613 solid was dissolved in water. Sixty-two mg of CPI-613 (0.00016 mol) was added to 10 mL of water, then 165 μL of 1M NaOH or KOH was added and stirred until a clear solution was obtained. This gave a 16 mM solution. The resulting 16 mM solution was then serially diluted, thereby providing 8 mM and 4 mM solutions of the CPI-613 salt form. For the ammonium salt, vehicle to drug ratio was maintained at 8:1 and the formulation was prepared using procedures analogous to those described above in Section 2 relating to preparation of CPI-613 formulations in different vehicles.
# (§4) CPI-613 formulated in 1M triethanolamine (TEA) was used as an internal control during formulation screening. To prepare a 16 mM of working stock of CPI-613, 50 mg/mL of CPI-613 (128.66 mM of CPI-613 in 1M TEA) was diluted in complete cell culture media containing 10% FBS. That is, 310 μL of a 128.66 mM solution of CPI-613 in 1M TEA was added to 2.19 mL of cell culture media. This stock was further diluted serially in complete media to give 8 mM, 4 mM 2 mM, 1.5 mM and 0.5 mM working solutions. On the day of testing, 5 μL of this working solution was added to 95 μL of cell culture media (20 fold dilution) resulting final concentrations of 400, 200, 100, 75 and 25 μM CPI-613, respectively. The ratio of CPI-613 to TEA was maintained at 1:8 ratio at all times.
# (§5) The cell viability of CPI-613 formulations formulated at a ratio of 1:8, CPI-613 to vehicle, was assessed by exposing the A2780 ovarian tumor cells and BXPC3 human pancreatic cancer cells to the following CPI-613 concentrations: 400 μM (3200 μM vehicle), 200 μM (1600 μM vehicle), 100 μM (800 μM vehicle), 75 μM (600 μM vehicle) and 25 μM (200 μM vehicle) The impact of corresponding vehicles at 3200, 1600 and 800 μM concentrations was also tested in tumor cells for cell viability. […] CPI-613 in TEA was used as an internal control. The tumor cells were treated for 24 hrs with the test article in serum-containing medium. After 24 hrs of treatment the number of viable tumor cells was determined.
# (§6) The number of cells targeted for the study was 4×10^3 per well in 100 μL of medium. The actual number of cells were counted and seeded in the wells of a 96 well-plate. The cells were incubated for ˜24 hrs before addition of CPI-613.
# (§7) For each cell line the concentrations of test articles or vehicles specified above was used.
# [3] = CellTiter Glo cell viability assay, BXPC3 cells; conditions: human, BXPC3 Cell Viability; for viability: 24 hrs
# Procedure: as §2
# as §1, with “CPI-613 (i.e., 6,8-bis(benzylthio)octanoic acid) stock solutions at concentrations of 8, 4, 2, 1.5 and 0.5 mM were prepared in the appropriate vehicles. The molar ratio of vehicle to CPI-613 was maintained at 8:1. The” for “The”, “water. Next, 8 mM of CPI-613 was added and the mixture was stirred until a clear solution was obtained.” for “water.”
# as §3, §4, §5, §6, §7
# [4] = system: A2780 human ovarian cancer cells; test: CellTiter Glo cell viability assay, A2780 cells; conditions: 24 hrs; for A2780 Cell Viability (alkali salt formulations): CPI-613 to base 1:1
# Procedure: as §2
# as §1, with “CPI-613 (i.e., 6,8-bis(benzylthio)octanoic acid) stock solutions at concentrations of 8, 4, 2, 1.5 and 0.5 mM were prepared in the appropriate vehicles. The molar ratio of vehicle to CPI-613 was maintained at 8:1. The” for “The”, “water. Next, 8 mM of CPI-613 was added and the mixture was stirred until a clear solution was obtained.” for “water.”
# as §3, §4, §5, §6, §7
# [5] = system: BXPC3 human pancreatic cancer cells; test: CellTiter Glo cell viability assay, BXPC3 cells; conditions: 24 hrs; for BXPC3 Cell Viability (alkali salt formulations): CPI-613 to base 1:1
# Procedure: as §2
# as §1, with “CPI-613 (i.e., 6,8-bis(benzylthio)octanoic acid) stock solutions at concentrations of 8, 4, 2, 1.5 and 0.5 mM were prepared in the appropriate vehicles. The molar ratio of vehicle to CPI-613 was maintained at 8:1. The” for “The”, “water. Next, 8 mM of CPI-613 was added and the mixture was stirred until a clear solution was obtained.” for “water.”
# as §3, §4, §5, §6, §7
# [6] = A2780 ovarian cancer cells, vehicle alone 800 μM
# [7] = A2780 ovarian cancer cells, vehicle alone 1600 μM
# [8] = A2780 ovarian cancer cells, vehicle alone 3200 μM
# [9] = BXPC3 pancreatic cancer cells, vehicle alone 800 μM
# [10] = BXPC3 pancreatic cancer cells, vehicle alone 1600 μM
# [11] = BXPC3 pancreatic cancer cells, vehicle alone 3200 μM
Molecule,impact of vehicle on cancer cell killing [1],"viability at 24 h, 800 μM [2, 6]","viability at 24 h, 1600 μM [2, 7]","viability at 24 h, 3200 μM [2, 8]","viability at 24 h, 800 μM [3, 9]","viability at 24 h, 1600 μM [3, 10]","viability at 24 h, 3200 μM [3, 11]",also measured
CC(O)CNCC(C)O (stereo not drawn) [Diisopropanolamine],appear to have come cell killing effects,–,–,–,–,–,–,–
OCCNCCO [Diethanolamine],did not show a significant impact on cancer cell killing,85 to 95%,85 to 95%,> 95%,85 to 95%,85 to 95%,85 to 95%,–
NC(CO)(CO)CO [Tris base],did not show a significant impact on cancer cell killing,> 95%,> 95%,> 95%,> 95%,> 95%,> 95%,–
NCCO [Ethanolamine],–,> 95%,> 95%,> 95%,85 to 95%,85 to 95%,85 to 95%,–
CC(O)CN(CC(C)O)CC(C)O (stereo not drawn) [Triisopropanolamine],appear to have come cell killing effects,–,–,–,–,–,–,viability ([2]; vehicle alone 800 μM): > 95%; viability ([2]; vehicle alone 1600 μM): > 95%; viability ([2]; vehicle alone 3200 μM): 70 to 85%; viability ([3]; vehicle alone 800 μM): > 95%; viability ([3]; vehicle alone 1600 μM): > 95%; viability ([3]; vehicle alone 3200 μM): 70 to 85%
CNC[C@H](O)[C@@H](O)[C@H](O)[C@H](O)CO [Meglumine],did not show a significant impact on cancer cell killing,–,–,–,–,–,–,viability ([2]; vehicle alone 800 μM): > 95%; viability ([2]; vehicle alone 1600 μM): > 95%; viability ([2]; vehicle alone 3200 μM): > 95%; viability ([3]; vehicle alone 800 μM): 85 to 95%; viability ([3]; vehicle alone 1600 μM): 85 to 95%; viability ([3]; vehicle alone 3200 μM): 85 to 95%
C1CNCCN1 [Piperazine],did not show a significant impact on cancer cell killing,85 to 95%,70 to 85%,85 to 95%,85 to 95%,85 to 95%,70 to 85%,–
O=C(O)CCCCC(CCSCc1ccccc1)SCc1ccccc1 (stereo not drawn) [CPI-613 potassium salt],–,–,–,–,–,–,–,A2780 Cell Viability (alkali salt formulations) ([4]; CPI-613 25 μM): ++ (tumor cell viability of >70% up to 95%); A2780 Cell Viability (alkali salt formulations) ([4]; CPI-613 75 μM): ++ (tumor cell viability of >70% up to 95%); A2780 Cell Viability (alkali salt formulations) ([4]; CPI-613 100 μM): ++ (tumor cell viability of >70% up to 95%); A2780 Cell Viability (alkali salt formulations) ([4]; CPI-613 200 μM): +++ (tumor cell viability of >30% up to 70%); A2780 Cell Viability (alkali salt formulations) ([4]; CPI-613 400 μM): +++++ (tumor cell viability of ≤10%); cell kill in A2780 cells ([4]; salt formulation at 200 μM): ~65%; cell kill in A2780 cells ([4]; salt formulation at 400 μM): all the cells were killed; BXPC3 Cell Viability (alkali salt formulations) ([5]; CPI-613 25 μM): + (tumor cell viability of >95%); BXPC3 Cell Viability (alkali salt formulations) ([5]; CPI-613 75 μM): ++ (tumor cell viability of >70% up to 95%); BXPC3 Cell Viability (alkali salt formulations) ([5]; CPI-613 100 μM): ++ (tumor cell viability of >70% up to 95%); BXPC3 Cell Viability (alkali salt formulations) ([5]; CPI-613 200 μM): +++ (tumor cell viability of >30% up to 70%); BXPC3 Cell Viability (alkali salt formulations) ([5]; CPI-613 400 μM): +++++ (tumor cell viability of ≤10%); cell kill in BXPC3 cells ([5]; salt formulation at 200 μM): ~50%; cell kill in BXPC3 cells ([5]; salt formulation at 400 μM): all the cells were killed
Aminopropanediol,did not show a significant impact on cancer cell killing,–,–,–,–,–,–,–
CCNCC [Diethylamine],did not show a significant impact on cancer cell killing,–,–,–,–,–,–,"viability at 24 h, 800 μM ([2]; vehicle alone 800 μM): > 95%; viability at 24 h, 1600 μM ([2]; vehicle alone 1600 μM): > 95%; viability at 24 h, 3200 μM ([2]; vehicle alone 3200 μM): 85 to 95%; viability at 24 h, 800 μM ([3]; vehicle alone 800 μM): > 95%; viability at 24 h, 1600 μM ([3]; vehicle alone 1600 μM): 70 to 85%; viability at 24 h, 3200 μM ([3]; vehicle alone 3200 μM): < 70%"
NCCN [Ethylenediamine],appear to have come cell killing effects,85 to 95%,85 to 95%,< 70%,> 95%,70 to 85%,< 70%,–
NCCCO [3-amino-1-proponol],did not show a significant impact on cancer cell killing,–,–,–,–,–,–,–
